Laboratory results: paper PMC10479830, “Nucleoside analogs NM107 and AT-527 are antiviral against rubella virus” (PNAS Nexus, 2023)
Like-named read-outs stand apart in the source and are kept apart here.

What was measured:
rubella virus [1] = test: viral titers of Jeg-3 supernatants, TCID50 assay; assay type: cell-based; details: Jeg-3 cells, 10 μM, 48 hpi, below the limit of detection
Description: (§1) A549 or Jeg-3 cells were plated, treated, and infected as for the qRT–PCR experiments. At 4 hpi, cells were washed twice with DPBS (Invitrogen) to remove any nonadsorbed virus and 2 mL of appropriate culture medium treated with vehicle or drug was added. At 48 hpi, cell supernatants were collected and titered by TCID50 assay.
(§2) A549 cells were plated in 96 well plates at 25,000 cells/well and incubated overnight before inoculating with two-fold serial dilutions of viral stock or virus-containing supernatant to determine viral titer. At 24 hpi, plates were processed for microscopy and imaged as above. Titers were calculated using the Reed–Muench method ([26]).

rubella virus [2] = test: qRT-PCR of viral RNA in infected A549 cells; assay type: cell-based; details: 10 µM, 48 h, vs vehicle
Description: (§3) We next performed orthogonal assays to determine the magnitude of the inhibition of rubella infection upon treatment with either NM107 or AT-527. […] We also determined if these nucleoside analogs impacted virus production.
(§4) A549 cells were plated in 6-well plates at 5 × 10^5 cells/well, HBMEC were plated at 6 × 10^5 cells/well, or Jeg-3 cells were plated at 5 × 10^5 cells/well. Twenty-four hours later, vehicle or drugs were added at the indicated concentrations. One hour later, cells were infected with rubella virus (MOI = 0.17 for A549s, MOI = 0.07 for HBMEC, MOI = 0.05 for Jeg-3 cells) and HBMEC were spin-infected by centrifuging at 1,250×g for 1 h at 25°C. […] At 48 hpi, total RNA was purified using Trizol (Invitrogen) followed by the RNA Clean and Concentrate kit (Zymo Research). cDNA synthesis was performed with random hexamers and Moloney murine leukemia virus reverse transcriptase (Invitrogen). Gene-specific primers to rubella RA27/3 NSP and GAPDH were used (Table S4). […] Relative quantities of viral and cellular RNA were calculated using a relative standard curve method where quantification was performed with respect to a 5-point standard curve generated from serial dilutions of a pooled reference generated by combining each sample cDNA for the experiment. […]

rubella virus [3] = test: rubella virus infection of Jeg-3 cells, dose-response; assay type: cell-based; details: Rubella virus
Description: Since rubella can cause congenital infections, we next developed assays in the human trophoblast cell line Jeg-3.
(§5) A549 cells were plated in 384 well plates at 3,000 cells/well, HBMEC were plated at 7,000 cells/well, or Jeg-3 cells were plated at 3,000 cells/well in 20 μL growth media. The next day, 50 nL of drugs were added to assay wells, yielding a final concentration of 1 µM. The positive control nanchangmycin (n = 32) and the negative control DMSO (n = 32) were spotted on each assay plate. One hour later, cells were infected with rubella virus at a multiplicity of infection (MOI) = 0.234 for A549s, MOI = 0.1 for HBMEC, MOI = 0.05 for Jeg-3 cells). […] HBMECs were spin-infected by centrifuging at 1,250×g for 1 h at 25°C. Cells were fixed at 48 h post infection (hpi) in 4% formaldehyde/phosphate-buffered saline (PBS) for 15 min at room temperature and then washed twice with PBS. Cells were blocked with blocking buffer [2% bovine serum albumin in PBS with 0.1% Triton X-100 (PBST)]) for 1 h and incubated with primary antibody (mouse antirubella E1, CDC, 1 μg/mL) overnight at 4°C. Cells were washed three times with PBST and incubated in secondary (1:1000 antimouse Alexa Fluor 488 and 5 μg/mL Hoechst 33342) for 1 h at room temperature. Cells were washed three times with PBST and imaged using ImageXpress Micro (Molecular Devices). Cells were imaged with a 10× objective capturing four sites per well. The total number of cells and the percentage of infected cells were measured using the MetaXpress 5.3.3 cell scoring module. The aggregated percent infection of the DMSO and 2 µM nanchangmycin control wells on each assay plate were used to calculate Z′-factors. Sample well infection was normalized to aggregated DMSO plate control wells and expressed as percentage of control (POC = [%Infection sample/Average %Infection DMSO] × 100) and Z-score (Z = [%Infection sample − Average %Infection DMSO]/Standard Deviation %Infection DMSO) in Spotfire (PerkinElmer). Candidate hits were selected as compounds with POC <40% and viability >60%, compared with vehicle control.
(§6) Drugs were purchased as powders from Selleckchem, MedchemExpress, and MedKoo and suspended in DMSO. Drugs were arrayed in 8-pt dose–response in 384 well plates. Infections were performed using the screening conditions. DMSO (n = 32) and 2 µM nanchangmycin (n = 16) were included on each validation plate as controls for normalization. Infection at each drug concentration was normalized to aggregated DMSO plate control wells and expressed as POC (POC = %Infection sample/Average %Infection DMSO cont). A nonlinear regression curve fit analysis (GraphPad Prism 8) was performed on POC infection and cell viability using log10 transformed concentration values to calculate IC50 values for infection and CC50 values for cell viability. SI was calculated as a ratio of the drug's CC50 and IC50 values (SI = CC50/IC50).

rubella virus [4] = test: qRT-PCR of viral RNA in infected Jeg-3 cells; assay type: cell-based; details: 10 μM, 48 h, vs vehicle
Description: as §3, §4

rubella virus [5] = test: viral titers of A549 supernatants, TCID50 assay; assay type: cell-based; details: A549 cells, 10 µM, 48 hpi, at the limit of detection
Description: as §1, §2

HCV [6] = tested on: HCV; set-up: method as in PMID 31914458; details: cited from earlier work
rubella RA27/3 virus = test: microbe, parasite or virus in culture; assay type: cell-based; details: for selectivity index (SI = CC50/IC50): A549 cells; for IC50: Rubella virus
Source text: (§7) We developed a high-throughput, high-content, cell-based assay to monitor rubella virus infection of the human respiratory cell line A549, as the respiratory tract is infected in humans. […] We infected A549 cells with the rubella virus vaccine strain (RA27/3) and monitored infection using an antibody to the viral glycoprotein E1 (Fig. 1A) ([13]). […] To evaluate the utility of nanchangmycin as a positive control for our assay development, we performed a dose–response assay for nanchangmycin using automated fluorescent microscopy to quantify the cell number as a surrogate for cell viability and percent infection (Fig. 1A).
as §5, with “plate.” for “plate. One hour later, cells were infected with rubella virus at a multiplicity of infection (MOI) = 0.234 for A549s, MOI = 0.1 for HBMEC, MOI = 0.05 for Jeg-3 cells).”, “Cells were washed three times with PBST and incubated in secondary (1:1000 antimouse Alexa Fluor 488 and 5 μg/mL Hoechst 33342) for 1 h at room temperature.” left out
as §6

[7] = cell number (cell viability) in Jeg-3 cells; assay type: cell-based, human; details: human, Jeg-3 cells (infected with rubella virus)
Description: as §5, with “The aggregated percent infection of the DMSO and 2 µM nanchangmycin control wells on each assay plate were used to calculate Z′-factors.” left out, “Candidate hits were selected as compounds with POC <40% and viability >60%, compared with vehicle control.” left out
(§8) Drugs were purchased as powders from Selleckchem, MedchemExpress, and MedKoo and suspended in DMSO. […] Infection at each drug concentration was normalized to aggregated DMSO plate control wells and expressed as POC (POC = %Infection sample/Average %Infection DMSO cont). […] SI was calculated as a ratio of the drug's CC50 and IC50 values (SI = CC50/IC50).

[8] = cell number (cell viability) in A549 cells, Hoechst 33342, automated microscopy; assay type: cell-based, human; details: human, A549 cells (infected with rubella virus RA27/3); A549 cells, cell number; read-out: half-maximal cytotoxicity concentration (CC50)
Source text: as §7, §5, §6

rubella virus [9] = test: rubella virus infection of HBMEC, dose-response; assay type: cell-based; details: Rubella virus
Description: Rubella virus can infect diverse tissues in vivo, and viruses can show tissue-specific dependencies on host factors. […] First, we developed assays in human brain microvascular endothelial cells (HBMECs) as a model for endothelial cells. We again used nanchangmycin to optimize the assay (Fig. 3A and B).
as §5, §6

[10] = set-up: method as in PMID 16248033; details: cited from earlier work
[11] = cell number (cell viability) in HBMEC; assay type: cell-based; details: human, HBMEC (infected with rubella virus)
Description: A549 cells were plated in 384 well plates at 3,000 cells/well, HBMEC were plated at 7,000 cells/well, or Jeg-3 cells were plated at 3,000 cells/well in 20 μL growth media. The next day, 50 nL of drugs were added to assay wells, yielding a final concentration of 1 µM. The positive control nanchangmycin (n = 32) and the negative control DMSO (n = 32) were spotted on each assay plate. One hour later, cells were infected with rubella virus at a multiplicity of infection (MOI) = 0.234 for A549s, MOI = 0.1 for HBMEC, MOI = 0.05 for Jeg-3 cells). […] HBMECs were spin-infected by centrifuging at 1,250×g for 1 h at 25°C. […] The total number of cells and the percentage of infected cells were measured using the MetaXpress 5.3.3 cell scoring module. […] Sample well infection was normalized to aggregated DMSO plate control wells and expressed as percentage of control (POC = [%Infection sample/Average %Infection DMSO] × 100) and Z-score (Z = [%Infection sample − Average %Infection DMSO]/Standard Deviation %Infection DMSO) in Spotfire (PerkinElmer). […]
as §8

HCV [12] = tested on: HCV; set-up: method as in PMID 16248033; details: reason for discontinuation; cited from earlier work
rubella virus [13] = tested on: rubella virus; set-up: method as in PMID 30680653, PMID 28974385; details: cited from earlier work
rubella virus [14] = tested on: rubella virus; set-up: method as in PMID 30680653, PMID 28974385; details: case study; cited from earlier work

CNc1nc(N)nc2c1ncn2[C@@H]1O[C@H](CO[P@@](=O)(N[C@@H](C)C(=O)OC(C)C)Oc2ccccc2)[C@@H](O)[C@@]1(C)F [AT-527]
reduction of viral titers (rubella virus [1]): ~10,000 fold
reduction in viral replication as measured by qRT-PCR (rubella virus [2]): > 100 fold
IC50 (rubella virus [3]; JEG-3, read-out: IC50, rubella virus infection): 10 nM
reduction in viral RNA by qRT-PCR (rubella virus [4]): > 100 fold
reduction of viral titers (rubella virus [5]): ~100,000 fold
in vivo activity in a clinical trial (HCV [6]; HCV infection): showed in vivo activity
tolerability in clinical trial (HCV [6]): well tolerated
selectivity index (SI = CC50/IC50) (rubella RA27/3 virus): > 9
IC50 (rubella RA27/3 virus; A549, read-out: half-maximal inhibitory concentration (IC50), rubella virus infection): 2250 nM

C[C@@]1(O)[C@H](O)[C@@H](CO)O[C@H]1n1ccc(N)nc1=O [NM107, 2′-C-methylcytidine]
reduction of viral titers (rubella virus [1]): ~10,000 fold
reduction in viral replication as measured by qRT-PCR (rubella virus [2]): > 100 fold
CC50 at 48 h [7]: > 20000 nM
CC50 at 48 h [8]: > 20000 nM
IC50 (rubella virus [3]; Jeg-3 cells, read-out: IC50, rubella virus infection): 600 nM
reduction in viral RNA by qRT-PCR (rubella virus [4]): > 100 fold
IC50 (rubella virus [9]): < 10 nM
bioavailability [10]: low bioavailability
reduction of viral titers (rubella virus [5]): ~100,000 fold
CC50 at 48 h [11]: > 20000 nM
selectivity index (SI = CC50/IC50) (rubella RA27/3 virus): > 817
IC50 (rubella RA27/3 virus; A549, read-out: IC50, rubella virus infection): 20 nM

CC(C)[C@H](N)C(=O)O[C@@H]1[C@@H](CO)O[C@@H](n2ccc(N)nc2=O)[C@]1(C)O [NM283]
toxicity in clinical trials (HCV [12]): gastrointestinal toxicity

CC(=O)Oc1ccccc1C(=O)Nc1ncc([N+](=O)[O-])s1 [nitazoxanide]
antiviral activity in cultured cells infected with rubella virus (rubella virus [13]): showed antiviral activity
rubella virus antigen in patient (skin lesions) (rubella virus [14]): reduced rubella antigen
